As a reminder, the inhibition is the share of the control response that was lost under treatment. One may read the IC50 as the midpoint of a concentration-inhibition curve. Low readings indicate higher potency, high ones lower potency. The EC50 is the concentration giving half of the maximal effect.

Molecules are shown by their SMILES.

In one assay the target is T1, KV1.3 (Homo sapiens, UniProt P22001). Nature of the assay: KV1.3 inhibition, manual voltage-clamp on Xenopus laevis oocytes. Type of assay: cell-based. The note with it: 10 μM; manual voltage-clamp on Xenopus laevis oocytes. How it is done: (§1) Stage V–VI oocytes were isolated by partial ovariectomy from Xenopus laevis frogs (African clawed frogs). […] After anaesthetizing the frogs by a 15-min submersion in 0.1% tricaine methanesulfonate (amino benzoic acid ethyl ester; Merck, Kenilworth, NJ, USA), pH 7.0, the oocytes were collected. The isolated oocytes were then washed with a 1.5 mg/mL collagenase solution for 2 h to remove the follicle layer.
T1 sequence (P22001 whole entry): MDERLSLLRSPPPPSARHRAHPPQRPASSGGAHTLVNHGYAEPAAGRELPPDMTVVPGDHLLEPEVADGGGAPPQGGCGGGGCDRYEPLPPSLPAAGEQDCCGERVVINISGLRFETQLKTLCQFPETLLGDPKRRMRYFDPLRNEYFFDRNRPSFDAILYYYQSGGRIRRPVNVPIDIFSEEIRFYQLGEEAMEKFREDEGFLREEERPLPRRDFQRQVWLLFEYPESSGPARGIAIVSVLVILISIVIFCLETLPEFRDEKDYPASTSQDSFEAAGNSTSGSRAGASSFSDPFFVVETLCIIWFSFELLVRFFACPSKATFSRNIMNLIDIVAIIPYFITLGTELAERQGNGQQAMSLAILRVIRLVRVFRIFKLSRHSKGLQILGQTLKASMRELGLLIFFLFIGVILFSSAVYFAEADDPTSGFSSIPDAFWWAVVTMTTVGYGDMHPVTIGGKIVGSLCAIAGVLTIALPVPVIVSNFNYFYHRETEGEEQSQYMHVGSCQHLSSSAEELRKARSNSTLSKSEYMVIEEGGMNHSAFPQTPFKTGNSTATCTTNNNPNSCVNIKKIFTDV
(§2) Ion channels (Kv1.x, Kv2.1, Kv4.2, Kv10.1) were expressed in Xenopus laevis oocytes by linearization of the plasmids and subsequent in vitro transcription using a commercial T7 or SP6 mMESSAGE mMACHINE transcription kit (Ambion, Carlsbad, California, USA). Defolliculated Xenopus oocytes were then injected with 20–50 nL of the cRNA at a concentration of 1 ng/nL using a micro-injector (Drummond Scientific1, Broomall, PA, USA). The oocytes were incubated in a solution containing (in mM): NaCl, 96; KCl, 2; CaCl2, 1.8; MgCl2, 2 and HEPES, 5 (pH 7.5), supplemented with 50 mg/L gentamycin sulfate and 90 mg/L theophylline.
(§3) Two-electrode voltage-clamp recordings were performed at room temperature (18–22 °C) using a Geneclamp 500 amplifier (Molecular Devices, San Jose, CA, USA) and pClamp data acquisition (Axon Instruments, Union City, CA, USA) and using an integrated digital TEVC amplifier controlled by HiClamp, an automated Voltage-Clamp Screening System (Multi Channel Systems MCS GmbH, Reutlingen, Germany). Whole-cell currents from oocytes were recorded 1–4 days after injection. The bath solution composition was ND96 (in mM): NaCl, 96; KCl, 2; CaCl2, 1.8; MgCl2, 2 and HEPES, 5 (pH 7.5). Voltage and current electrodes were filled with a 3 M solution of KCl in H2O. […] The elicited Kv1.x, Kv2.1, Kv4.2 and Kv10.1 currents were filtered at 0.5 kHz and sampled at 2 kHz using a four-pole low-pass Bessel filter. Leak subtraction was performed using a P/4 protocol.
(§4) For the electrophysiological analysis of the compounds, a number of protocols were applied from a holding potential of −90 mV. Currents for Kv1.x, Kv2.1, Kv4.2 and Kv10.1 were evoked by 1 s depolarizing pulses either to 0 mV or to a range of voltage steps between −80 mV and +40 mV. For the analysis of the data, only the inhibition at the 0 mV step was used. The concentration dependency of all compounds was assessed by measuring the current inhibition in the presence of increasing compound concentrations. […] From this stock solution, adequate dilutions with a maximum of 0.5% DMSO were made for testing.
(§5) All electrophysiological data (Figure S1) are presented as means ± S.E.M of n ≥ three independent experiments unless otherwise indicated. […] The Dunnett test and one-way ANOVA were performed to calculate the significance of the induced inhibition compared to the control.
The molecule `COc1ccc(C2(CNC(=O)c3ccccc3OC)CCCC2)cc1` [Compound 6] displayed an inhibition at 10 µM of under 10%.

On to `COc1ccccc1C(=O)NCC1(c2ccccc2OC)CCCC1` [Compound 7], for which the inhibition at 10 µM is under 10%.

As for `COc1ccc(C2(CNC(=O)c3ccccc3OC)CCCC2)cc1OC` [Compound 8], the inhibition at 10 µM is under 10%.

In turn, `COc1ccccc1C(=O)NCC1(c2ccc3c(c2)OCO3)CCCC1` [Compound 9] yielded an inhibition at 10 µM of under 10%.

`COc1ccccc1C(=O)NCC1(c2ccccc2)CCCC1` [Compound 10]: the inhibition at 10 µM was under 10%.

As for `COc1cccc(C2(CNC(=O)c3ccccc3OC)CCCC2)c1` [Compound 11], the inhibition at 10 µM turned out to be 18 ± 3%.

In turn, `COc1ccccc1C(=O)NCC1(c2cccc(C)c2)CCCC1` [Compound 12] showed an inhibition at 10 µM of 16 ± 4%.

Take `COc1ccccc1C(=O)NCC1(c2cccs2)CCCC1` [Compound 13]: at 10 µM the inhibition was 57 ± 9%.

`COc1ccc(C2(CNC(=O)c3ccccc3OC)CCCCC2)cc1OC` [Compound 15] returned an inhibition at 10 µM of under 10%.

Molecule `COc1ccc(C2(CNC(=O)c3ccccc3OC)CCCCC2)cc1` [Compound 16] yielded an inhibition at 10 µM of under 10%.

The molecule `COc1ccccc1C(=O)NCC1(c2ccc(C(F)(F)F)cc2)CCCCC1` [Compound 17] had an inhibition at 10 µM of under 10%.

Consider `COc1ccccc1C(=O)NCC1(c2ccccc2OC)CCCCC1` [Compound 18], for which the inhibition at 10 µM is under 10%.

`COc1cccc(C2(CNC(=O)c3ccccc3OC)CCCCC2)c1` [Compound 19] displayed an inhibition at 10 µM of 12 ± 2%.

Molecule `COc1ccccc1C(=O)NCC1(c2cccc(C)c2)CCCCC1` [Compound 20] had an inhibition at 10 µM of 27 ± 2%.

`COc1ccccc1C(=O)NCC1(c2ccsc2)CCCCC1` [Compound 21] yielded an inhibition at 10 µM of 30 ± 8%.

Turning to `COc1ccccc1C(=O)NCC1(c2ccc(C(F)(F)F)cc2)CCOCC1` [Compound 22], the inhibition at 10 µM was under 10%.

The molecule `COc1ccc(C2(CNC(=O)c3ccccc3OC)CCOCC2)cc1OC` [Compound 23] came in with an inhibition at 10 µM of under 10%.

`COc1ccc(C2(CNC(=O)c3ccccc3OC)CCOCC2)cc1` [Compound 24] displayed an inhibition at 10 µM of 59 ± 5%.

Turning to `COc1ccccc1C(=O)NCC1(c2ccc(C)cc2)CCOCC1` [Compound 25], testing at 10 µM gave an inhibition of 52 ± 8%.

Molecule `COc1ccccc1C(=O)NCC1(c2ccc3c(c2)OCO3)CCOCC1` [Compound 26] yielded an inhibition at 10 µM of 60 ± 9%.

`COc1ccccc1C(=O)NCC1(c2ccccc2OC)CCOCC1` [Compound 27] yielded an inhibition at 10 µM of 78 ± 4%.

Take `COc1cccc(C2(CNC(=O)c3ccccc3OC)CCOCC2)c1` [Compound 28]: the inhibition at 10 µM was found to be 88 ± 4%.

The molecule `COc1ccccc1C(=O)NCC1(c2cccc(C)c2)CCOCC1` [Compound 29] had an inhibition at 10 µM of 87 ± 4%.

Regarding `COc1cccc(OC)c1C(=O)NCC1(c2ccccc2)CCOCC1` [Compound 30], the inhibition at 10 µM was under 10%.

For the molecule `O=C(NCC1(c2ccccc2)CCOCC1)c1ccsc1` [Compound 31], the inhibition at 10 µM is 11 ± 4%.

Regarding `O=C(NCC1(c2ccccc2)CCOCC1)c1ccoc1` [Compound 32], the inhibition at 10 µM worked out at 27 ± 6%.

In the case of `COc1ccccc1CC(=O)NCC1(c2ccccc2)CCOCC1` [Compound 33], testing at 10 µM gave an inhibition of 38 ± 5%.

In the case of `COc1ccc(C)cc1C(=O)NCC1(c2ccccc2)CCOCC1` [Compound 34], the inhibition at 10 µM was found to be 47 ± 1%.

`CCOc1ccccc1C(=O)NCC1(c2ccccc2)CCOCC1` [Compound 35]: the inhibition at 10 µM stood at 74 ± 9%.

`COc1cc(C)ccc1C(=O)NCC1(c2ccccc2)CCOCC1` [Compound 36] gave an inhibition at 10 µM of 89 ± 4%.

Molecule `COc1ccccc1C(=O)NCC1(c2csc3ccccc23)CCOCC1` [Compound 38] showed an inhibition at 10 µM of under 10%.

`COc1ccc(-c2csc(C3(CNC(=O)c4ccccc4OC)CCOCC3)n2)cc1` [Compound 39] yielded an inhibition at 10 µM of under 10%.

For the molecule `COc1ccccc1C(=O)NCC1(c2nc(-c3ccccc3)cs2)CCOCC1` [Compound 40], the inhibition at 10 µM was under 10%.

In the case of `COc1ccccc1C(=O)NCC1(c2csc(C)n2)CCOCC1` [Compound 41], at 10 µM the inhibition was 41 ± 10%.

Take `COc1ccccc1C(=O)NCC1(c2cscn2)CCOCC1` [Compound 42]: the inhibition at 10 µM was 54 ± 10%.

`COc1cccc(OC)c1C(=O)NCC1(c2ccsc2)CCOCC1` [Compound 45]: the inhibition at 10 µM is under 10%.

The molecule `O=C(NCC1(c2ccsc2)CCOCC1)c1ccoc1` [Compound 46] returned an inhibition at 10 µM of 21 ± 6%.

The molecule `CCOc1ccccc1C(=O)NCC1(c2ccsc2)CCOCC1` [Compound 47] returned an inhibition at 10 µM of 35 ± 8%.

As for `COc1ccc(C)cc1C(=O)NCC1(c2ccsc2)CCOCC1` [Compound 48], the inhibition at 10 µM was 42 ± 6%.

As for `COc1ccccc1CC(=O)NCC1(c2ccsc2)CCOCC1` [Compound 49], the inhibition at 10 µM was 43 ± 1%.

`COc1ccc(F)cc1C(=O)NCC1(c2ccsc2)CCOCC1` [Compound 50]: the inhibition at 10 µM worked out at 47 ± 9%.

Molecule `COc1cc(C)ccc1C(=O)NCC1(c2ccsc2)CCOCC1` [Compound 51] returned an inhibition at 10 µM of 82 ± 1%.

The same assay, now with this note: KV1.3; manual voltage-clamp, Xenopus laevis oocytes.
Molecule `COc1cccc(C2(CNC(=O)c3ccccc3OC)CCOCC2)c1` [Compound 28] had an IC50 of 5.75 µM.

`COc1ccccc1C(=O)NCC1(c2cccc(C)c2)CCOCC1` [Compound 29] had a 50% inhibitory concentration (IC50) of 4.3 µM.

A further assay concerns Panc-1 cell line.
Assay: not given
Set-up: method as in PMID 29034212. The conditions noted are these: Panc-1 cell line; read-out: EC50 decrease of cell survival; cited from earlier work.
On to `O=c1ccc2c(OCCCCOc3ccc(CCC[P+](c4ccccc4)(c4ccccc4)c4ccccc4)cc3)c3ccoc3cc2o1` [PAPTP], for which the EC50 was about 3 µM.

As to `O=C(NCCC[P+](c1ccccc1)(c1ccccc1)c1ccccc1)Oc1ccc(OCCCCOc2c3ccoc3cc3oc(=O)ccc23)cc1` [PCARBTP], the EC50 was about 6 µM.

Another assay deals with T1, KV1.3. The experiment in a line: KV1.3 inhibition, HiClamp on Xenopus laevis oocytes. The note with it: Xenopus laevis oocytes (marked * in Table 2). Type of assay: cell-based. How it is done: as §1, §2, §3, §4, §5
`COc1cc(C)ccc1C(=O)NCC1(c2ccccc2)CCOCC1` [Compound 36] showed an IC50 of 1.65 µM. This counts as single-digit micromolar.

Consider `COc1cc(C)ccc1C(=O)NCC1(c2ccsc2)CCOCC1` [Compound 51], for which half-maximal inhibition (IC50) was put at 2.92 µM.

For another assay, the system named is Colo-357.
Assay: not given
Further details: method as in PMID 29034212. The conditions noted are these: read-out: EC50 cell death; cited from earlier work.
For the molecule `O=c1ccc2c(OCCCCOc3ccc(CCC[P+](c4ccccc4)(c4ccccc4)c4ccccc4)cc3)c3ccoc3cc2o1` [PAPTP], the EC50 is 3.7 µM.

With `O=C(NCCC[P+](c1ccccc1)(c1ccccc1)c1ccccc1)Oc1ccc(OCCCCOc2c3ccoc3cc3oc(=O)ccc23)cc1` [PCARBTP], the EC50 was 2 µM.

The record behind these values is paper PMC9179341, “Design of New Potent and Selective Thiophene-Based KV1.3 Inhibitors and Their Potential for Anticancer Activity” (Cancers, 2022).
